In US20050020611A1, “Compounds” (priority 2003, published 2005):

Assays:
[1] = tested on: TNFα release from human peripheral blood mononuclear cells; assay: Inhibition of LPS-stimulated TNFα release from human peripheral blood mononuclear cells (TNFα screen, ELISA); type: cell-based; settings: human PBMC, 18 hours incubation, TNFα in supernatant by ELISA
Method: Venous blood is collected from healthy volunteers and the mononuclear cells purified by centrifugation through Histopaque (Ficoll) cushions. TNFα production from these cells is stimulated by addition of lipopolysaccharide. After 18 hours incubation in the presence of LPS, the cell supernatant is removed and the concentration of TNFα in the supernatant determined by ELISA.

PDE4 = PDE4 inhibition: hydrolysis of tritium labelled cAMP to AMP, SPA bead scintillation counting; type: biochemical; settings: 50% reduction in counts compared to PDE4 only control wells
Method: The PDE4 inhibitory activity of the nicotinamide derivatives of the formula (I) is determined by the ability of compounds to inhibit the hydrolysis of cAMP to AMP by PDE4 (Thompson J W, Teraski W L, Epstein P M, Strada S J., “Assay of nucleotidephosphodiesterase and resolution of multiple molecular forms of the isoenzyme”, Advances in cyclic nucleotides research, edited by Brooker G, Greengard P, Robinson G A. Raven Press, New York 1979, 10, p. 69-92). Tritium labelled cAMP is incubated with PDE4. Following incubation, the radiolabelled AMP produced is able to bind yttrium silicate SPA beads. These SPA beads subsequently produce light that can be quantified by scintillation counting. The addition of a PDE4 inhibitor prevents the formation of AMP from cAMP and counts are diminished. The IC50 of a PDE4 inhibitor can be defined as the concentration of a compound that leads to a 50% reduction in counts compared to the PDE4 only (no inhibitor) control wells.

| SMILES | IC50 [1] [pM] | IC50 (PDE4) [pM] |
| --- | --- | --- |
| O=C(N[C@H]1CC[C@@H](NC(=O)c2cc(F)cnc2OC2CCSCC2)CC1)c1ccccc1OCCCO [Example 14, Syn-5-Fluoro-N-{4-[2-(3-hydroxy-propoxy)-benzoylamino]-cyclohexyl}-2-(tetrahydro-thiopyran-4-yloxy)-nicotinamide] | 100 |  |
| COc1ccccc1-c1cc(C(=O)N[C@H]2CC[C@@H](NC(=O)c3cc(F)cnc3OC3CCSCC3)CC2)n[nH]1 [Example 2, Syn-5-Fluoro-N-(4-{[5-(2-methoxy-phenyl)-1H-pyrazole-3-carbonyl]-amino}-cyclohexyl)-2-(tetrahydro-thiopyran-4-yloxy)-nicotinamide] | 1500 |  |
| Cc1ccc(OCCO)c(C(=O)N[C@H]2CC[C@@H](NC(=O)c3cc(F)cnc3OC3CCSCC3)CC2)c1 [Example 5] | 20 | 1000 |
| COc1ccc2cccnc2c1S(=O)(=O)N[C@H]1CC[C@@H](NC(=O)c2cccnc2OC2CCSCC2)CC1 [Example 29, Syn-N-[4-(7-methoxy-quinoline-8-sulfonylamino)-cyclohexyl]-2-(tetrahydro-thiopyran-4-yloxy)-nicotinamide] | 400 |  |
| CCOc1cc(O)ccc1C(=O)N[C@H]1CC[C@@H](NC(=O)c2cc(F)cnc2OC2CCSCC2)CC1 [Example 22, Syn-N-[4-(2-Ethoxy-4-hydroxy-benzoylamino)-cyclohexyl]-5-fluoro-2-(tetrahydro-thiopyran-4-yloxy)-nicotinamide] | 200 |  |
| Cc1ccc(C(=O)N[C@H]2CC[C@@H](NC(=O)c3cc(F)cnc3OC3CCSCC3)CC2)c(OCCO)c1 [Example 10] | 40 | 5000 |
| O=C(N[C@H]1CC[C@@H](NC(=O)c2cc(F)cnc2OC2CCSCC2)CC1)c1ccc(O)cc1OC1CCCC1 [Example 24, Syn-N-[4-(2-Cyclopentoxy-4-hydroxy-benzoylamino)-cyclohexyl]-5-fluoro-2-(tetrahydro-thiopyran-4-yloxy)-nicotinamide] | 100 |  |
| COc1ccc2cccnc2c1S(=O)(=O)N[C@H]1CC[C@@H](NC(=O)c2cc(F)cnc2OC2CCSCC2)CC1 [Example 28, Syn-5-Fluoro-N-[4-(7-methoxy-quinoline-8-sulfonylamino)-cyclohexyl]-2-(tetrahydro-thiopyran-4-yloxy)-nicotinamide] | 200 |  |
| COc1ccn2ccnc2c1C(=O)N[C@H]1CC[C@@H](NC(=O)c2cc(F)cnc2OC2CCSCC2)CC1 [Example 3, Syn-7-Methoxy-imidazo[1,2-a]pyridine-8-carboxylic acid(4-{[5-fluoro-2-(tetrahydro-thiopyran-4-yloxy)-pyridine-3-carbonyl]-amino}-cyclohexyl)amide] | 20 |  |
| COc1ccc(C)cc1S(=O)(=O)N[C@H]1CC[C@@H](NC(=O)c2cccnc2OC2CCSCC2)CC1 [Example 27, Syn-N-[4-(2-methoxy-5-methyl-benzenesulfonylamino)-cyclohexyl]-2-(tetrahydro-thiopyran-4-yloxy)-nicotinamide] | 5000 |  |
| O=C(N[C@H]1CC[C@@H](NC(=O)c2cc(F)cnc2OC2CCSCC2)CC1)c1ccccc1OCCO [Example 4, Syn-5-Fluoro-N-{4-[2-(2-hydroxy-ethoxy)-benzoylamino]-cyclohexyl}-2-(tetrahydro-thiopyran-4-yloxy)-nicotinamide] | 40 | 1500 |
| COc1cc(O)ccc1C(=O)N[C@H]1CC[C@@H](NC(=O)c2cc(F)cnc2OC2CCSCC2)CC1 [Example 1] | 700 |  |
| O=C(N[C@H]1CC[C@@H](NC(=O)c2cc(F)cnc2OC2CCSCC2)CC1)c1ccc(O)cc1OCC1CC1 [Example 23] | 200 |  |
| Cc1cnc(OC2CCSCC2)c(C(=O)N[C@H]2CC[C@@H](NC(=O)c3ccccc3OCCO)CC2)c1 [Example 13, Syn-N-{4-[2-(2-Hydroxy-ethoxy)-benzoylamino]-cyclohexyl}-5-methyl-2-(tetrahydro-thiopyran-4-yloxy)-nicotinamide] | 4000 |  |
| Cc1cccc(C(=O)N[C@H]2CC[C@@H](NC(=O)c3cc(F)cnc3OC3CCSCC3)CC2)c1OCCO [Example 9] | 100 | 2800 |
